Structures can show the parent of a compound that is named as a salt.
Test system: rat hepatocytes
Assay: metabolism sample: incubation of sibutramine with rat hepatocytes, metabolites detected by μPESI/MS
Assay type: in vitro ADME
Conditions: R-enantiomer of sibutramine hydrochloride incubated with rat hepatocytes for 8 h, 2.5-μl injection, Q-TOF Micro
Method: For bioanalysis experiments verapamil, angiotensin I, angiotensin II, substance P, and horse heart myoglobin were used as test compounds and 2.5 μl of each sample was pipetted to the sample introduction spot. For the measurements of linearity and sensitivity verapamil was dissolved into acetonitrile:water (95:5) with 0.1% formic acid at concentrations of 10 pM to 10 μM. The metabolism sample was prepared by incubating R-enantiomer of sibutramine hydrochloride (purity>99%) with rat hepatocytes for 8 h. After sample preparation the sample was evaporated dryness and the residue was diluted to 50 μl of methanol. 10 μl of sample was dissolved into 500 μl acetonitrile:water (95:5) with 0.1% formic acid.
The peptides (angiotensin I, angiotensin II, and substance P) and the protein (horse heart myoglobin) were diluted into 80% aqueous methanol containing 1% acetic acid (two separate samples). The concentrations were 5 μM for the peptides and 300 nM for horse heart myoglobin. Full-scan mass spectra ranging from m/z 400 to 750 were measured from the peptide mixture and m/z 700 to 950 from the protein in the positive mode. Sibutramine metabolism sample was measured with Q-TOF Micro. A mass spectrum of solvent blank sample was subtracted from that of metabolism sample. […]

For CC(C)CC(N(C)C)C1(c2ccc(Cl)cc2)CCC1 (stereo not shown) [sibutramine, sibutramine hydrochloride], the “sibutramine metabolites found in metabolism sample” value was “small amounts of sibutramine glucuronides were found”.

From patent US7928368B2, “Micropillar array electrospray chip” (Licentia Oy, priority 2007, dated 2011)
